Measured values published in publication PMC6278399, “Synthesis and Anticancer Activity Evaluation of Hydrolyzed Derivatives of Panaxnotoginseng Saponins” (Molecules, 2018).

Tests used:
[1] = MTT cytotoxicity assay, IOSE144 normal cells; type: cell-based, human; conditions: human
Source text: (§1) In the study, five cancer cell lines (human colon cancer cells (HT-29), gastric cancer cells (BGC-823), cervical cancer cells (Hela), human breast cancer cells (MCF-7), and human lung cancer cells A549)), and two normal cell lines (human gastric epithelial cells (GES-1) and human ovarian epithelial cells (IOSE144)) were used for the evaluation of biological activity. IOSE144 cells were donated by Professor Piao Huri of Yanbian University, all other cells were purchased from the American Type Culture Collection (ATCC, Manassas, VA, USA). Cells were cultured in Dulbecco’s Modified Eagle’s Medium (DMEM), supplemented with 10% heat-inactivated fetal bovine serum (FBS), 1% 100 μg/mL penicillin and 100 μg/mL streptomycin in a humidified atmosphere containing 5% CO2 at 37 °C. Cell viability was measured using the MTT assay. Cells were seeded in 96 well microtiter plates in a volume of 100 μL medium. All compounds tested were dissolved and further diluted in DMSO. After overnight incubation, cells were treated with different test concentrations or carrier solvents alone in a final volume of 100 μL with five replicates each. […] Cells were treated with compound (80, 40, 20, 10, 5 μM) for 48 h. Then, 10 μL of MTT (5 mg/mL) was added to each well and the cells were incubated at 37 °C in the dark for 4 h. Supernatants were removed and formazan crystals were dissolved in DMSO (100 μL/well). The solution was agitated for 10 min, and the absorbance was measured at 490 nm using microplate reader (imark, BIO-RAD, Hercules, CA, USA) to calculate the 50% inhibitory concentration (IC50). Ginsenoside-Rg3, panaxadiol sapogenin (PD), AD-2 (25-OH-PPD) and AD-1 (25-OCH3-PPD) were used as standard reference compounds.

[2] = system: cervical cancer cells (Hela); test: MTT cytotoxicity assay, Hela; type: cell-based, human; conditions: 48 h
Source text: as §1

[3] = system: human lung cancer cells A549; test: MTT cytotoxicity assay, A549; type: cell-based; conditions: 48 h
Source text: as §1

[4] = MTT cytotoxicity assay, GES-1 normal cells; type: cell-based, human; conditions: human
Source text: as §1

[5] = system: gastric cancer cells (BGC-823); test: MTT cytotoxicity assay, BGC-823; type: cell-based, human; conditions: BGC-823, MTT, 48 h
Source text: as §1

[6] = design: method as in earlier work; conditions: stronger than ginsenoside-Rg3; cited from earlier work
[7] = system: human breast cancer cells (MCF-7); test: MTT cytotoxicity assay, MCF-7; type: cell-based; conditions: MCF-7, MTT, 48 h
Source text: as §1

[8] = system: human colon cancer cells (HT-29); test: MTT cytotoxicity assay, HT-29; type: cell-based; conditions: HT-29, MTT, 48 h
Source text: as §1

MCF-7 cells [9] = test: Cell cycle distribution assay, MCF-7; type: cell-based, human; conditions: MCF-7, 30 μM, 24 h; controls 0.73% (3b) and 1.69% (AD-1)
Procedure: MCF-7 cells treated with 30 μM of compound 3b were incubated for 24 h in CO2 incubator. AD-1 was tested as a positive control, and the experimental concentration of AD-1 was 30 μM. Cells were trypsinized, harvested, washed with PBS, and fixed with 75% ethanol overnight at −20 °C. Next, fixed cells were washed with PBS and stained for 4 h in the dark with a PI solution consisting of 50 μg/mL PI, 50 μg/mL RNase, 0.1% sodium citrate and 0.1% Triton X-100 (pH 8.0). Cell cycle distribution was determined using FACScan (Becton Dickinson, Franklin Lakes, NJ, USA).

[10] = system: five cancer cell lines (HT-29, BGC-823, Hela, MCF-7, A549); test: Cytotoxic activity on five cancer cell lines (overall statement); type: cell-based, human; conditions: MTT
Source text: as §1

IOSE144 cells = test: Cell cycle distribution assay, IOSE144; type: cell-based, human; conditions: IOSE144, 24 h; control 1.17%
[11] = system: human ovarian epithelial cells (IOSE144); test: MTT cytotoxicity assay, IOSE144 normal cells; type: cell-based; conditions: IOSE144 normal cells, MTT, 48 h
Source text: as §1

[12] = system: human gastric epithelial cells (GES-1); test: MTT cytotoxicity assay, GES-1 normal cells; type: cell-based; conditions: GES-1 normal cells, MTT, 48 h
Source text: as §1

MCF-7 cells [13] = test: Wound healing assay; type: cell-based, human; conditions: MCF-7, 30 μM, 24 h, serum-free
Procedure: MCF-7 cells were seeded in 10-cm dishes at a concentration of 1 × 10^5 cells/ mL and grown overnight. Then, a wound was created in the monolayer of cells by scratching the monolayer with a sharp tip followed by another 24 h of incubation in the presence of 30 μM of compound 3b or 0.1% DMSO under serum-free conditions, 30 μM of AD-1 as a positive control. The gap created was measured under a microscope to provide an indication of the wound healing capability of the cells.

[14] = IOSE144 ovarian epithelial cells (normal cell line), IOSE144 normal cells, MTT, 48 h, read-out: IC50
[15] = GES-1 gastric epithelial cells (normal cell line), GES-1 normal cells, MTT, 48 h, read-out: IC50

| Compound | IC50 ([2]; Homo sapiens) [µM] | IC50 ([3]; Homo sapiens) [µM] | IC50 ([5]; Homo sapiens) [µM] | IC50 ([7]; Homo sapiens, MCF7) [µM] | IC50 ([8]; Homo sapiens) [µM] | IC50 at 48 h [1] [µM] | IC50 at 48 h [4] [µM] | melting point [°C] | anticancer activity (in words) [10] | further results |
| --- | --- | --- | --- | --- | --- | --- | --- | --- | --- | --- |
| CC(C)(O)CCC[C@@](C)(O)C1CC[C@]2(C)C1[C@H](O)CC1[C@@]3(C)CC[C@H](O)C(C)(C)C3CC[C@]12C (stereo partly drawn) [AD-2, 25-hydroxyprotopanaxadiol, reference compound] | 48.6 ± 1.24 | 34.3 ± 0.87 | 44.2 ± 1.06 | 49.6 ± 1.35 | 18.7 ± 0.28 |  |  |  |  | IC50 at 48 h [1, 14]: > 100 µM; IC50 at 48 h [4, 15]: > 100 µM; antitumor activity compared with ginsenoside-Rg3 [6]: 5–15 fold |
| CC(=O)Oc1ccccc1C(=O)OC1CCC2(C)C(CCC3(C)C2CC(O)C2C(C4(C)CCCC(C)(C)O4)CCC23C)C1(C)C (stereo not drawn) [Compound 3b] | 20.9 ± 0.54 | 14.37 ± 0.04 | 11.2 ± 0.16 | 2.56 ± 0.09 | 10.7 ± 0.12 | > 100 | > 100 | 243 to 245 | strong anticancer activity | subG1 phase after treatment (MCF-7 cells [9]): 56.95%; subG1 phase after treatment (IOSE144 cells): 7.58% |
| CC(=O)Oc1ccccc1C(=O)OC1CCC2(C)C(CCC3(C)C2CC(O)C2C(C(C)(O)CCCC(C)(C)O)CCC23C)C1(C)C (stereo not drawn) [Compound 8b] | 10 ± 0.53 | 6.12 ± 0.1 | 10.2 ± 0.29 | 14.7 ± 0.24 | 13.25 ± 0.05 | > 100 | > 100 | 254 to 256 | strong anticancer activity |  |
| CC(=O)Oc1ccccc1C(=O)OC1CC2C3(C)CCC(OC(=O)c4ccccc4OC(C)=O)C(C)(C)C3CCC2(C)C2(C)CCC(C3(C)CCCC(C)(C)O3)C12 [Compound 2b, 20(R)-Pananxadiol-3β, 12β-di-yl-2′-acetylbenzoate] | 16.2 ± 0.34 | 15.47 ± 0.13 | 8.12 ± 0.25 | 10.25 ± 0.05 | 5.27 ± 0.14 | > 100 | > 100 | 238 to 240 | strong anticancer activity |  |
| CC(C)=CCC[C@](C)(O)[C@H]1CC[C@]2(C)[C@@H]1[C@H](O)C[C@@H]1[C@@]3(C)CC[C@H](O[C@@H]4O[C@H](CO)[C@@H](O)[C@H](O)[C@H]4O[C@@H]4O[C@H](CO)[C@@H](O)[C@H](O)[C@H]4O)C(C)(C)[C@@H]3CC[C@]12C [Rg3, Ginsenoside-Rg3, reference compound] |  |  |  |  |  |  |  |  |  | IC50 [11]: > 100 µM; IC50 [2]: 85.2 ± 1.59 µM; IC50 [3]: > 100 µM; IC50 [12]: > 100 µM; IC50 [5]: > 100 µM; IC50 [7]: 92.1 ± 2.36 µM; IC50 [8]: > 100 µM |
| CC(C)(O)CCCC(C)(O)C1CCC2(C)C1C(OC(=O)c1ccccc1O)CC1C3(C)CCC(OC(=O)c4ccccc4O)C(C)(C)C3CCC12C [Compound 7a, 20(R)-Dammarane-20, 25-diol-3β, 12β-di-yl-2′-hydroxybenzoate] | 35.2 ± 1.24 | 8.52 ± 0.15 | 70.6 ± 2.12 | 29.1 ± 0.69 | 22.7 ± 0.46 | > 100 | > 100 | 197 to 199 | strong anticancer activity |  |
| COC(C)(C)CCC[C@@](C)(O)C1CC[C@]2(C)C1[C@H](O)CC1[C@@]3(C)CC[C@H](O)C(C)(C)C3CC[C@]12C (stereo partly drawn) [AD-1, 25-methoxyprotopanaxadiol, reference compound] | 12.99 ± 0.06 | 34.32 ± 0.31 | 16.6 ± 0.45 | 7.34 ± 0.19 | 16.6 ± 0.25 |  |  |  |  | subG1 phase after treatment (MCF-7 cells [9]): 38.45%; IC50 at 48 h [1, 14]: > 100 µM; IC50 at 48 h [4, 15]: > 100 µM; MCF-7 cell migration (wound distance) (MCF-7 cells [13]): inhibited the migration of MCF-7 cells; antitumor activity compared with ginsenoside-Rg3 [6]: 5–15 fold |
| CC(=O)Oc1ccccc1C(=O)OC1CCC2(C)C(CCC3(C)C2CC(OC(=O)c2ccccc2O)C2C(C4(C)CCCC(C)(C)O4)CCC23C)C1(C)C [Compound 1b, 20(R)-Pananxadiol-3β-yl-2′-acetylbenzoate-12β-yl-2′-hydroxybenzoate] | 11.3 ± 0.14 | 13.26 ± 0.11 | 9.65 ± 0.61 | 7.65 ± 0.29 | 12.2 ± 0.28 | > 100 | > 100 | 198 to 200 | strong anticancer activity |  |
